The record followed here is ChEMBL document CHEMBL4823324, “Discovery of BMS-986318, a Potent Nonbile Acid FXR Agonist for the Treatment of Nonalcoholic Steatohepatitis” (ACS Med Chem Lett, 2021).

pEC50, pIC50: −log10 of the molar value.

Data set [1] in a line: AUC in C57B6 mouse at 2 mg/kg, po administered as suspension. It counts as ADME, organism-based. Also on record: dose 2 mg/kg. Conditions: in vivo.
Data set [2] can be described thus: Metabolic stability in mouse liver microsomes assessed as half life. It counts as ADME, Microsome. Background: Liver microsomes are a subcellular fraction often used to study metabolism.
Data set [3] is described as follows: Oral bioavailability in C57B6 mouse at 2 mg/kg administered as suspension. Conditions: in vivo. It counts as ADME, organism-based.
The target of data set [4] is T1, Nuclear receptor ROR-gamma (Homo sapiens, UniProt P51449).
T1 sequence (P51449 whole entry): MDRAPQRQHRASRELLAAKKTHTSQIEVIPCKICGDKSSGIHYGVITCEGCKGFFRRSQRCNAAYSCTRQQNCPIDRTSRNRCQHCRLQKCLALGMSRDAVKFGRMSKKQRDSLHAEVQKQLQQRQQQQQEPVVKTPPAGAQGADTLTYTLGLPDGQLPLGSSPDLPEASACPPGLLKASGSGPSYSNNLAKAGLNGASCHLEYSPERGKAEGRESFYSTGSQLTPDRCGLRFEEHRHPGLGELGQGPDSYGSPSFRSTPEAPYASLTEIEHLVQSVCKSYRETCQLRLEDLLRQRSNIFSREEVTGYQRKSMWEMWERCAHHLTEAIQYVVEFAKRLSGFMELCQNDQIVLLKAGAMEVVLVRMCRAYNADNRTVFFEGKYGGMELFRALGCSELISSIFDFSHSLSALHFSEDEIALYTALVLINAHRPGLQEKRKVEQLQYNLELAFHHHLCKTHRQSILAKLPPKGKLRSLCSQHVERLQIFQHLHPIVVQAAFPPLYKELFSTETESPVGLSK
The data set can be described thus: Displacement of [3H]25-hydroxycholesterol from human N-terminal His-tagged RORgammaT LBD (262 to 508 residues) expressed in Escherichia coli preincubated for 10 mins followed by addition [3H]25-OH cholesterol and measured after 10 mins by scintillation proximity assay. Background: Loss of bound radioactivity is the signal in a displacement assay; it reports binding, not function.

The nature of data set [5]: Cmax in C57B6 mouse at 2 mg/kg, po administered as solution. Type of data set: ADME, organism-based. Further details: route oral, dose 2 mg/kg. The following applies: in vivo.
For data set [6], the target named is T2, Nuclear receptor ROR-alpha (Homo sapiens, UniProt P35398).
T2 sequence (P35398 whole entry): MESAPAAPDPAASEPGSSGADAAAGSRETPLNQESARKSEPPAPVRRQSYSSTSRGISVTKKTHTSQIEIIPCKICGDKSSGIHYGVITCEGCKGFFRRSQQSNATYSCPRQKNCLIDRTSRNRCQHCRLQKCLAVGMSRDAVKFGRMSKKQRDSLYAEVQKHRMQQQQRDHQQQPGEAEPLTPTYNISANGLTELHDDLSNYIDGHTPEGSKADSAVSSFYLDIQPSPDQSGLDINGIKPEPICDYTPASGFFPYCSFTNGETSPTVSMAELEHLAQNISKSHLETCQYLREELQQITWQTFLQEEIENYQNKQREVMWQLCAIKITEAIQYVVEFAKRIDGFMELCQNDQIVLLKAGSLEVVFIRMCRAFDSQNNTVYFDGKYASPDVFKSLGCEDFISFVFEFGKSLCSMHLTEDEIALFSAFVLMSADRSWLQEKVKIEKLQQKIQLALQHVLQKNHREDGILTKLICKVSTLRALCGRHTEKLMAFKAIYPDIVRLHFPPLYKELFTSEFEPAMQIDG
The data set is described as follows: Agonist activity at human RORalpha (272 to 557 residues) co-expressed with Gal4-luciferase reporter in human Jurkat cells incubated for 18 hrs by Steady-Glo luciferase reporter based luminescence analysis. It counts as cell-based.

For data set [7], the target named is T3, Peroxisome proliferator-activated receptor alpha (Homo sapiens, UniProt Q07869).
T3 sequence (Q07869 whole entry): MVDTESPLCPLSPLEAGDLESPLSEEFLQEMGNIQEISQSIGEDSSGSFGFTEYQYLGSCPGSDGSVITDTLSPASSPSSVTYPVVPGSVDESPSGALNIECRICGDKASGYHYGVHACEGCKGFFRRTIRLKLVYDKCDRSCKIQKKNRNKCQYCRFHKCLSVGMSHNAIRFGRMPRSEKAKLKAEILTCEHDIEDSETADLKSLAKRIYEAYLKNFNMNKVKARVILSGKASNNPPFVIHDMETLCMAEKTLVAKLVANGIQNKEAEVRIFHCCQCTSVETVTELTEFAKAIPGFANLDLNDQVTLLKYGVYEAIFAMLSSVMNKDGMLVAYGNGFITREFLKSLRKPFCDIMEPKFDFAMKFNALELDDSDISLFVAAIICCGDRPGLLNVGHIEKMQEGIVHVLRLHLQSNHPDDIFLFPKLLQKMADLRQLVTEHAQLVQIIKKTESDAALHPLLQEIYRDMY
The data set can be described thus: Activation of PPARalpha LBD (unknown origin) co-expressed with Gal4UAS-luciferase reporter in HEK293 cells incubated for 24 hrs by Steady-Glo luciferase reporter gene based luminescence analysis. It counts as cell-based.

The compound `O=C(O)c1cc(C(F)(F)F)c2cc(N3CCC4(C=C(c5c(-c6c(Cl)cncc6Cl)noc5C5CC5)C4)CC3)ccc2n1` showed an AUC in data set [1] of 4.76 µM·h. Besides, in data set [2], the half-life is greater than 2 h. For the same compound, the bioavailability in data set [3] was determined as 26%. This compound also showed a pIC50 in data set [4] of less than 4.40. Also, the Cmax in data set [5] is 1220 nM. Besides, the negative-log EC50 (pEC50) in data set [6] and in data set [7] was less than 4.40 in each case.

As usually defined, the AUC is concentration integrated over time. Lower therefore signals low exposure. A word on the half-life: it is the time needed for the level to fall by half in the phase considered. What is called bioavailability is the share of a dose that reaches the circulation, judged against a reference dose that is usually intravenous. A lower bioavailability goes with poor availability. The pIC50 is the negative decadic logarithm of the IC50, by convention in mol/L. The low end stands for a large IC50, the high end for a small IC50. One may read the Cmax as the maximum level reached in the sampled fluid or tissue. The term pEC50 denotes −log10 of the EC50, conventionally taken in molar units.
